Measurements as given in the NIST ThermoML archive (doi:10.1021/je300312c).
Values joined by “and” are separate entries in the source; they are usually repeats but may differ in a detail not shown here. Equal entries are not always repeated.

Experiments:
[1] = for vapor or sublimation pressure: Transpiration method
[2] = Molar enthalpy of transition or fusion; conditions: Crystal; DSC

CCCn1cnc2ccccc21 [1-propyl-1H-benzimidazole]
[1], Liquid
Conditions | vapor or sublimation pressure [kPa]
326.7 K | 0.00166
329.1 K | 0.00202
331.7 K | 0.00262
333.9 K | 0.00298
334.3 K | 0.00312
336.6 K | 0.00377
339.2 K | 0.0047
341.4 K | 0.00546
344.2 K | 0.00671
346.9 K | 0.00797
349.3 K | 0.00969
351.8 K | 0.01262
354.3 K | 0.01444
356.8 K | 0.01719
359.3 K | 0.01949
361.8 K | 0.02422
364.3 K | 0.02965
366.6 K | 0.03507
369.3 K | 0.0417
372.4 K | 0.05004
375.9 K | 0.06251

Cn1cnc2ccccc21 [1-methylbenzimidazole]
Conditions | Molar enthalpy of transition or fusion [kcal/mol]
[2] | 3.23

[1]
Conditions | Normal melting temperature [°C] | vapor or sublimation pressure [kPa]
300.7 K, Crystal | – | 0.0002
303.2 K, Crystal | – | 0.00026
305.6 K, Crystal | – | 0.00034
308.1 K, Crystal | – | 0.00046
311 K, Crystal | – | 0.00061
313.7 K, Crystal | – | 0.00082
314.2 K, Crystal | – | 0.00087
314.2 K, Liquid | – | 0.00115
316.6 K, Liquid | – | 0.00139
316.7 K, Crystal | – | 0.00112
319 K, Liquid | – | 0.00172
319.6 K, Crystal | – | 0.00154
321.5 K, Liquid | – | 0.00209
322.5 K, Crystal | – | 0.00213
324.5 K, Crystal | – | 0.00249
324.5 K, Liquid | – | 0.00278
325.5 K, Crystal | – | 0.0027
326.9 K, Crystal | – | 0.00316
326.9 K, Liquid | – | 0.00332
329.5 K, Liquid | – | 0.00402
331.5 K, Liquid | – | 0.0046
334.5 K, Liquid | – | 0.00598
335.9 K, Liquid | – | 0.00673
336.9 K, Liquid | – | 0.00709
337.5 K, Liquid | – | 0.00742
339.6 K, Liquid | – | 0.00868
341.6 K, Liquid | – | 0.01014
344.4 K, Liquid | – | 0.01267
347.2 K, Liquid | – | 0.0155
349.4 K, Liquid | – | 0.01858
351.8 K, Liquid | – | 0.02168
354.1 K, Liquid | – | 0.02462
354.4 K, Liquid | – | 0.0258
356.5 K, Liquid | – | 0.029
358.9 K, Liquid | – | 0.03371
361.3 K, Liquid | – | 0.0389
364 K, Liquid | – | 0.04752
366.8 K, Liquid | – | 0.0558
368.1 K, Liquid | – | 0.06162
369.4 K, Liquid | – | 0.06627
372.6 K, Liquid | – | 0.07877
374.5 K, Liquid | – | 0.08885
376 K, Liquid | – | 0.09738
Crystal, DTA | 60.1 | –

CCCCCn1cnc2ccccc21 [1-pentyl-1H-benzimidazole]
[1], Liquid
Conditions | vapor or sublimation pressure
324.7 K | 0.00028 kPa
329.1 K | 0.00041 kPa
332 K | 0.00054 kPa
335.1 K | 0.00073 kPa
338.3 K | 0.0009 kPa
341.2 K | 0.00118 kPa
342.2 K | 0.00124 kPa
344 K | 0.00158 kPa
347.3 K | 0.00203 kPa
350.1 K | 0.00245 kPa
350.3 K | 0.00238 kPa
353.2 K | 0.00303 kPa
353.3 K | 0.00329 kPa
356.2 K | 0.00402 kPa
356.6 K | 0.00437 kPa
359.4 K | 0.00534 kPa
361.7 K | 0.00609 kPa and 0.0063 kPa
364.3 K | 0.00768 kPa and 0.0074 kPa
366.7 K | 0.00884 kPa
369.7 K | 0.0109 kPa
372.8 K | 0.0129 kPa
375.8 K | 0.01595 kPa

CCn1cnc2ccccc21 [1-ethyl-1H-benzimidazole]
[1], Liquid
Conditions | vapor or sublimation pressure [kPa]
328.8 K | 0.00273
331.8 K | 0.00334
334.3 K | 0.0041
336.7 K | 0.00481
339.2 K | 0.00591
341.7 K | 0.00714
343.7 K | 0.00826
346.7 K | 0.01029
349.1 K | 0.01206
351.7 K | 0.01365
353.9 K | 0.01678
356.7 K | 0.01954
358.9 K | 0.02439
361.2 K | 0.02801
363.9 K | 0.03343
366.6 K | 0.03948
368.9 K | 0.04573
372.1 K | 0.05679
375.1 K | 0.06706
